Usually IC50 stands for the point on the concentration scale where inhibition reaches its midpoint. Lower therefore signals higher potency.

The test system of series [1] is Tg2576 AD Disease Mice. The experiment in a line: Tg2576 study: Y-maze test. It counts as in vivo. The note with it: for # of Spontaneous Alterations (Y-Maze) / % Spontaneous Alterations (Y-Maze): G3 Tg2576 mice. The method, then:
(§1) Mice were weighed and randomized into groups. All the test formulations were freshly administered to respective animals of each group as per body weight. Basal behavior of the animals was recorded and analyzed in open field, Y-Maze, and EPM. Post basal behavior, animals were treated with compound I-16 for the duration of 3 months (i.e., from 6 months until 9 months). During the treatment duration, animals were subjected to different behavioral tests such as OFT, Y-maze, and EPM at 7, 8 and 9 months. At the end of experiments (i.e., at 9 months) animals were subjected to Morris water maze test.
To test spatial working memory, animals were subjected to spontaneous alteration test in Y-maze (Arm length—57 cm). During the test, the animal was placed at the end of one arm and allowed to explore the arena for a duration of 10 minutes. During the testing session, the number of entries in each arm were recorded and % alterations were calculated.
% Spontaneous alteration=(Spontaneous alteration/Total Arm entries−2)×100

For series [2], the system named is Tg2576 AD Disease Mice. Kind of series: Tg2576 study: open field test. It counts as in vivo. The note with it: for Open Field Test time spent in Central zone / Open Field Test time spent in Peripheral zone: G3 Tg2576 mice. The method, then:
as §1
Prior to the treatment initiation at […], animals were subjected to open field test. […] The total distance travelled, and velocity were quantified using an automated video tracking software Ethovision XT for the duration of 10 minutes. A camera, located directly above the centre of the open field, records the session. Locomotor activities were expressed as the total distance travelled and velocity.

A short description of series [3]: Tg2576 study: bioanalysis. It counts as in vivo, mice. The source says: At termination, animals were given a final dose, and under mild anesthesia, blood was collected retro-orbitally and separated plasma were utilized for bio analysis (G3) and ex vivo analysis. Then animals were euthanized under CO2 asphyxiation and brain tissue was collected and divided into two equal hemispheres. One hemisphere was fixed in 10% NBF for immunohistochemistry and from another hemisphere, dissected cortex and hippocampus was utilized for ex vivo analysis.
At the end of the experiment, animals in group G3 were dosed with the test compound, blood was collected under mild anesthesia, and separated plasma was utilized for drug bioanalysis by LC-MS/MS.

In series [4] the target is T1, HDAC10 (Homo sapiens, UniProt Q969S8).
T1 sequence (Q969S8 1-669): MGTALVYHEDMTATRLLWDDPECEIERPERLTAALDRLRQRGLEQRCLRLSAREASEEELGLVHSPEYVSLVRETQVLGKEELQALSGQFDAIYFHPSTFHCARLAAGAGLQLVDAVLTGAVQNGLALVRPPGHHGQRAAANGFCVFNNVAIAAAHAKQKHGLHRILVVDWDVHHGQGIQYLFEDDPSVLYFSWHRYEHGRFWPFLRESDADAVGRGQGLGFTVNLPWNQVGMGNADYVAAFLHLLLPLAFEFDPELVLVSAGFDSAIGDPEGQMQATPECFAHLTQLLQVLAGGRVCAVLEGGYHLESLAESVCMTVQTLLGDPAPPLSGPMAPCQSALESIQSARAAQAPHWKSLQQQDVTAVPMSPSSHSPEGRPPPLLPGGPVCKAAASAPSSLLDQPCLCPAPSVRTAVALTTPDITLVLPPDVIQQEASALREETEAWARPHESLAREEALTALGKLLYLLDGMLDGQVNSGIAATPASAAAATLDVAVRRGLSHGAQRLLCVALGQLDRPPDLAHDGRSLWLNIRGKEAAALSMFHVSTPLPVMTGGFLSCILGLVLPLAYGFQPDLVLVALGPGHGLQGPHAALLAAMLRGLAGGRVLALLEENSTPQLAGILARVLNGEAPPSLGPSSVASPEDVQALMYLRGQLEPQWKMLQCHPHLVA
Kind of series: HDAC selectivity panel: HDAC10. It counts as biochemical.

Series [5] can be described thus: ALS mouse model: bioanalysis of plasma, brain and CSF. The note with it: 4-hour timepoint, after week 16. It counts as in vivo, mice. The method, then:
At 16 weeks (9+7-week behavioral assessment), animals were dosed either with the vehicle or test compound and 4 hours post dosing, CSF, blood, and brain were collected for bioanalysis. Muscles (tibialis, soleus and gastrocnemius) and spinal cord were collected for histology (optional).
After completion of week 16 (9+7-week behavioral assessment), animals were dosed with the vehicle or test compound. 4 hours post dosing, CSF and blood (retro-orbitally) were collected under mild isoflurane anesthesia. Blood was centrifuged at 5000 rpm for 10 minutes at 4° C. and separated plasma was utilized for plasma drug concentration analysis. Then animals were euthanized, and brain tissue was collected. CSF, plasma and brain tissue samples from G3 and G4 were prepared for bioanalysis and compounds were extracted, and the supernatant was injected for LC-MS/MS bioanalysis. Drug concentration of compound I-8 was calculated from respective calibration curve for G3 and G4.

Series [6] is described as follows: ALS mouse model: clinical signs & mortality. It counts as in vivo. The note with it: G4 30 mg/kg (50 mg/kg from day 34) p.o. QD; SOD1-G93A mice. The method, then: Male mice and age-matched control mice were procured. All animals were quarantine for 7 days and acclimatized for one day prior to experiment initiation. During this period, the animals were observed daily for clinical signs.
Mice were weighed and randomized into different groups and age matched control groups were kept as such. Test compound I-8 was freshly formulated and administered to the respective animals of each group as per body weight. Animals in G1 and G2 were administered with vehicle. G3 and G4 group animals were dosed with compound I-8 at the dose of 15 mg/kg and 30 mg/kg respectively, per orally; Q.D. G4 animals were administered 30 mg/kg dose until day 34 and 50 mg/kg from day 35 onwards.
Cage-side observations were made to detect any changes and general activity of the animals. After dose administration, all the animals were observed carefully for treatment related clinical signs, including morbidity and mortality.

The target of series [7] is HDAC3 (Homo sapiens, UniProt O15379). Kind of series: HDAC selectivity panel: HDAC3. It counts as biochemical.
Chain of HDAC3 (O15379 whole entry, species assumed): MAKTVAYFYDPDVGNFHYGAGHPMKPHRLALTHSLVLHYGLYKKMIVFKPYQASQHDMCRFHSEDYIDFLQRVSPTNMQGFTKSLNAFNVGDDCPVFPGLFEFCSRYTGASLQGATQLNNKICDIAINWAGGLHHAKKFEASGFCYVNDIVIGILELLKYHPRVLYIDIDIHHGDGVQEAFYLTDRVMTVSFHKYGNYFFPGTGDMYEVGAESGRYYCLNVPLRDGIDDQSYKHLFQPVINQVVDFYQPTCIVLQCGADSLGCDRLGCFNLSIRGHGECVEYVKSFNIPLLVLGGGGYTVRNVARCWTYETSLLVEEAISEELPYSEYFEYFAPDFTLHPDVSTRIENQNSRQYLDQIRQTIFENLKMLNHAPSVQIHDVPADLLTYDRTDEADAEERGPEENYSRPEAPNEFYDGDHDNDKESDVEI
Chain of HDAC3 (Q9Y618 395-489 partner limits assumed, species assumed): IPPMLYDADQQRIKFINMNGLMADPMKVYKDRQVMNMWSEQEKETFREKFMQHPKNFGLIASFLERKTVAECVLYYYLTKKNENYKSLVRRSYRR
[8] abbreviates: G3 Tg2576 AD disease mice, 50 mg/kg.
The mark [9] stands for this setting: 50 mg/kg then 80 mg/kg from day 36 p.o., 8th months.
[10] abbreviates: 50 mg/kg then 80 mg/kg from day 36 p.o., 9th months.
[11] abbreviates: 6th months (Basal, before treatment).
The mark [12] stands for this setting: G4 50 mg/kg p.o. (30 mg/kg until day 33).

With `C[C@@H]1CN(Cc2ccc(Nc3nccc(-c4ccc(C(=O)NO)cc4)n3)cc2F)CCO1` [Compound I-16, (R)-4-(2-((3-fluoro-4-((2-methylmorpholino)methyl)phenyl)amino)pyrimidin-4-yl)-N-hydroxybenzamide], the “Y Maze: number of spontaneous alterations compared to G2 (Tg2576 + vehicle)” value in series [1] (setting [8]) was “did not show any significant difference”. Moreover, the “# of Spontaneous Alterations (Y-Maze)” value in series [1] (50 mg/kg p.o., 7th months) was 18.70 ± 6.96; in series [1] (setting [9]), 16.00 ± 2.59; in series [1] (setting [10]) it was 16.00 ± 2.48; in series [1] (setting [11]), 25.00 ± 5.19. Besides, the “% Spontaneous Alterations (Y-Maze)” value in series [1] (50 mg/kg p.o., 7th months) came out at 57.59 ± 3.85%; in series [1] (setting [9]), 41.65 ± 5.52%; in series [1] (setting [10]) it was 43.66 ± 4.55%; in series [1] (setting [11]), 53.60 ± 3.25%. Also, the “Open Field Test: total distance, velocity, time spent in central and peripheral zone compared to G2 (Tg2576 + vehicle)” value in series [2] (setting [8]) is “did not show any significant difference”. Also, the “Open Field Test time spent in Central zone” value is given as 25.12 ± 12.39 in series [2] (50 mg/kg p.o., 7th months); 79.09 ± 28.86 in series [2] (setting [9]); 61.69 ± 12.36 in series [2] (setting [10]); 57.11 ± 12.95 in series [2] (setting [11]). For the same compound, the “Open Field Test time spent in Peripheral zone” value in series [2] (50 mg/kg p.o., 7th months) was found to be 574.88 ± 12.39; in series [2] (setting [9]) it was 520.91 ± 28.86; in series [2] (setting [10]), 538.31 ± 12.36; in series [2] (setting [11]), 537.81 ± 12.63. In addition, the “Brain Conc (ng/mL)” value in series [3] (G3 Tg2576 mice, end of experiment, 9 hr post dose) was “No Peak”. The “plasma concentration time course” value in series [3] (G3 mice bled at different time points after the water maze test) is recorded as “time course dependent decrease”. The concentration at 2 h in series [3] (male, mouse, plasma, oral, G3 Tg2576 mice, end of experiment, 2 hr post dose, read-out: Plasma Concentrations) was 106 ± 13.8 ng/mL. Also, in series [3] (male, mouse, plasma, oral, G3 Tg2576 mice, end of experiment, 4 hr post dose, read-out: Plasma Concentrations), the concentration at 4 h is 32.6 ± 4.75 ng/mL. Besides, the concentration at 6 h in series [3] (male, mouse, plasma, oral, G3 Tg2576 mice, end of experiment, 6 hr post dose, read-out: Plasma Concentrations) worked out at 19 ± 4.16 ng/mL. Besides, the concentration at 8 h in series [3] (male, mouse, plasma, oral, G3 Tg2576 mice, end of experiment, 8 hr post dose, read-out: Plasma Concentrations) was 12.1 ± 2.1 ng/mL.

`CC1CN(Cc2ccc(Nc3nccc(-c4ccc(C(=O)NO)cc4)n3)cc2F)CCO1` (racemic) [Compound I-8, 4-(2-((3-fluoro-4-((2-methylmorpholino)methyl)phenyl)amino)pyrimidin-4-yl)-N-hydroxybenzamide] gave an IC50 in series [4] of 9.15 nM. In addition, in series [5] (G3 15 mg/kg p.o.), the “Brain drug concentration (Mean)” value worked out at 2.34 and the “Plasma drug concentration (Mean)” value was determined as 12.35. In series [5] (setting [12]), the “Brain drug concentration (Mean)” value was 3.87, the “CSF drug concentration (Mean)” value is reported as 2.70 and the “Plasma drug concentration (Mean)” value came to 136.15. The mortality entry in series [6] is “two mortalities”. Further, the IC50 in series [7] stood at 990 nM.
